Holding throughout (format): cell-based
Series [1] has as its system SUDHL10 cells. The series can be described thus: Induction of caspase-3/7 activity in SUDHL10 cells (Assay 4). The method, boiled down: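 Read-out: Caspase-Glo 3/7 luminescence (1 h, 37 °C) after cells, plated overnight, were treated with compounds for 3 h at 37 °C. Signal corrected for cell-free medium background and expressed relative to DMSO control mean.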
For a further series, the system named is SUDHL5 cells. The series can be described thus: Antiproliferation assay SUDHL5 (Assay 7). Put shortly:
(§1)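 Luminescent viability signal (CellTiter-Glo) after 72 h of treatment served as read-out. IC50 values were derived with day 0 luminescence as CI and DMSO wells as C0.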

In series [2] the test system is SUDHL10 cells. The series can be described thus: Induction of cytotoxicity in SUDHL10 cells (Assay 6). The conditions noted are these: 5 h, CellTiter-Glo, read-out: Cytotox SUDHL10 IC50 (median). Put shortly:
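Overnight seeding, 37 °C; 5 h compound exposure; CellTiter-Glo, 15 min RT shake; luminescence read. No-cell medium control.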

Another series concerns AMO-1 cells. The series can be described thus: Antiproliferation assay AMO-1 (Assay 7). Put shortly:
as §1

[3] abbreviates: caspase-3/7 induction, 3 h; read-out: Caspase SUDHL10 EC50 (median).
Where [4] appears, read: Homo sapiens, SU-DHL-5, 72 h, 72 h, CellTiter-Glo; read-out: Antiproli SUDHL5 IC50 (median).
[5] abbreviates: 72 h, CellTiter-Glo; read-out: Antiproli AMO-1 IC50 median.
Where [6] appears, read: 72 h, CellTiter-Glo; read-out: Antiproli SUDHL5 IC50 (median).
Setting [7] is: read-out: Caspase SUDHL10 EC50 (median); caspase-3/7 induction, 3 h.
[8] abbreviates: read-out: Antiproli SUDHL5 IC50 (median); 72 h, CellTiter-Glo.
[9] abbreviates: read-out: Antiproli AMO-1 IC50 median; 72 h, CellTiter-Glo.

Each structure is given as a SMILES string. Structures can show the parent of a compound that is named as a salt. Where two headings read alike, the source gives them in different places. A value given as a limit tells only on which side of the number the result lay.

In the case of `CCc1c2c(nn1C)C(CCO)OCCCCn1c(C(=O)O)c(CCCOc3cccc4cc(F)ccc34)c3ccc(Cl)c-2c31` (single isomer, unassigned; enantiomer 1) [Example 45, (+)-4-chloro-3-ethyl-7-{3-[(6-fluoronaphthalen-1-yl)oxy]propyl}-15-(2-hydroxyethyl)-2-methyl-2,10,11,12,13,15-hexahydropyrazolo[4′,3′:9,10][1,6]oxazacycloundecino[8,7,6-hi]indole-8-carboxylic Acid (Enantiomer 1)], the 50% effective concentration (EC50) in the series with SUDHL10 cells [1] (setting [3]) worked out at 99 nM. Besides, the IC50 was 95 nM with SUDHL5 cells (setting [4]), 73 nM in the series on SUDHL10 cells [2] and 185 nM in the series with AMO-1 cells (setting [5]).
On to `CCc1c2c(nn1C)C(CCN1CCOCC1)OCCCCn1c(C(=O)O)c(CCCOc3cccc4cc(F)ccc34)c3ccc(F)c-2c31` (single isomer, unassigned; enantiomer 1) [Example 50, (+)-3-ethyl-4-fluoro-7-{3-[(6-fluoronaphthalen-1-yl)oxy]propyl}-2-methyl-15-[2-(morpholin-4-yl)ethyl]-2,10,11,12,13,15-hexahydropyrazolo[4′,3′:9,10][1,6]oxazacycloundecino[8,7,6-hi]indole-8-carboxylic Acid (Enantiomer 1)], for which, in the series with SUDHL10 cells [1] (setting [3]), the EC50 is 26 nM. In addition, the IC50 stood at 11 nM in the series on SUDHL5 cells (setting [6]), 27 nM in the series on SUDHL10 cells [2] and 65.4 nM in the series with AMO-1 cells (setting [5]).
On to `CCc1c2c(nn1C)C(CC(C)(C)O)OCCCCn1c(C(=O)O)c(CCCOc3cccc4cc(F)ccc34)c3ccc(Cl)c-2c31` (single isomer, unassigned; enantiomer 1) [Example 53, (+)-4-chloro-3-ethyl-7-{3-[(6-fluoronaphthalen-1-yl)oxy]propyl}-15-(2-hydroxy-2-methylpropyl)-2-methyl-2,10,11,12,13,15-hexahydropyrazolo[4′,3′:9,10][1,6]oxazacycloundecino[8,7,6-hi]indole-8-carboxylic Acid—N-ethylethanamine Salt (Enantiomer 1)], for which the EC50 in the series with SUDHL10 cells [1] (setting [7]) was 160 nM. Besides, the IC50 was found to be 99 nM in the series with SUDHL5 cells (setting [8]), 190 nM in the series with SUDHL10 cells [2] and 185 nM with AMO-1 cells (setting [9]).
Take `CCc1c2c(nn1C)C(CCN1CCC(F)(F)C1)OCCCCn1c(C(=O)O)c(CCCOc3cccc4cc(F)ccc34)c3ccc(Cl)c-2c31` (single isomer, unassigned; enantiomer 1) [Example 56, 4-chloro-15-[2-(3,3-difluoropyrrolidin-1-yl)ethyl]-3-ethyl-7-{3-[(6-fluoronaphthalen-1-yl)oxy]propyl}-2-methyl-2,10,11,12,13,15-hexahydropyrazolo[4′,3′:9,10][1,6]oxazacycloundecino[8,7,6-hi]indole-8-carboxylic Acid—N-ethylethanamine Salt (Enantiomer 1)]: in the series with SUDHL10 cells [1] (setting [7]), the EC50 was 20 nM. For the same compound, the figures for the IC50 in the series on SUDHL5 cells (setting [8]), with SUDHL10 cells [2] and in the series with AMO-1 cells (setting [9]) were 87 nM, 39 nM and 22.6 nM, respectively.
For the compound `CCc1c2c(nn1C)C(CCC1CCOCC1)OCCCCn1c(C(=O)O)c(CCCOc3cccc4cc(F)ccc34)c3ccc(Cl)c-2c31` (single isomer, unassigned; enantiomer 1) [Example 61, 4-chloro-3-ethyl-7-{3-[(6-fluoronaphthalen-1-yl)oxy]propyl}-2-methyl-15-[2-(oxan-4-yl)ethyl]-2,10,11,12,13,15-hexahydropyrazolo[4′,3′:9,10][1,6]oxazacycloundecino[8,7,6-hi]indole-8-carboxylic Acid (Enantiomer 1)], in the series with SUDHL10 cells [1] (setting [3]), the EC50 was 23 nM. In addition, the values for the IC50 with SUDHL5 cells (setting [6]), in the series on SUDHL10 cells [2] and in the series with AMO-1 cells (setting [5]) were 24 nM, 29 nM and 22.5 nM, respectively.
On to `CCc1c2c(nn1C)C(CCC1CCOCC1)OCCCCn1c(C(=O)O)c(CCCOc3cccc4cc(F)ccc34)c3ccc(Cl)c-2c31` (single isomer, unassigned; enantiomer 1) [Example 63, (+)-4-chloro-3-ethyl-7-{3-[(6-fluoronaphthalen-1-yl)oxy]propyl}-2-methyl-15-[2-(oxan-4-yl)ethyl]-2,10,11,12,13,15-hexahydropyrazolo[4′,3′:9,10][1,6]oxazacycloundecino[8,7,6-hi]indole-8-carboxylic Acid—N-ethylethanamine Salt (Enantiomer 1)], for which the EC50 with SUDHL10 cells [1] (setting [7]) was found to be 53 nM. Besides, the IC50 with SUDHL5 cells (setting [8]) was determined as 42 nM; in the series on SUDHL10 cells [2], 67 nM; in the series with AMO-1 cells (setting [9]), 20 nM.
Consider `CCc1c2c(nn1C)C(CCC(C)(C)O)OCCCCn1c(C(=O)O)c(CCCOc3cccc4cc(F)ccc34)c3ccc(Cl)c-2c31` (single isomer, unassigned; enantiomer 1) [Example 75, (+)-4-chloro-3-ethyl-7-{3-[(6-fluoronaphthalen-1-yl)oxy]propyl}-15-(3-hydroxy-3-methylbutyl)-2-methyl-2,10,11,12,13,15-hexahydropyrazolo[4′,3′:9,10][1,6]oxazacycloundecino[8,7,6-hi]indole-8-carboxylic Acid—N-ethylethanamine Salt (Enantiomer 1)], for which, in the series on SUDHL10 cells [1] (setting [3]), the EC50 came out at 6.6 nM. Besides, the IC50 in the series on SUDHL5 cells (setting [6]) was found to be 11 nM; in the series on SUDHL10 cells [2], 9.7 nM; in the series on AMO-1 cells (setting [5]) it was 13.8 nM.
Regarding `CCc1c2c(nn1C)C(CCN1CCOCC1)OCCCCn1c(C(=O)O)c(CCCOc3cccc4ccccc34)c3ccc(F)c-2c31` (single isomer, unassigned; enantiomer 2) [Example 12, 3-ethyl-4-fluoro-2-methyl-15-[2-(morpholin-4-yl)ethyl]-7-{3-[(naphthalen-1-yl)oxy]propyl}-2,10,11,12,13,15-hexahydropyrazolo[4′,3′:9,10][1,6]oxazacycloundecino[8,7,6-hi]indole-8-carboxylic Acid—N-ethylethanamine Salt (Enantiomer 2)], the concentration giving a half-maximal response (EC50) with SUDHL10 cells [1] (setting [7]) was 7100 nM. The IC50 with SUDHL5 cells (setting [8]) is 2600 nM; with SUDHL10 cells [2] it was 8100 nM; in the series with AMO-1 cells (setting [9]) it was 12100 nM.
Consider `Cc1c2c(nn1C)C(CCN1CCOCC1)OCCCCn1c(C(=O)O)c(CCCOc3cccc4ccccc34)c3ccc(Cl)c-2c31` (single isomer, unassigned; enantiomer 2) [Example 15, 4-chloro-2,3-dimethyl-15-[2-(morpholin-4-yl)ethyl]-7-{3-[(naphthalen-1-yl)oxy]propyl}-2,10,11,12,13,15-hexahydropyrazolo[4′,3′:9,10][1,6]oxazacycloundecino[8,7,6-hi]indole-8-carboxylic Acid (Enantiomer 2)], for which the EC50 in the series on SUDHL10 cells [1] (setting [3]) amounted to 11000 nM. The IC50 in the series on SUDHL5 cells (setting [6]) was determined as 2500 nM; in the series on SUDHL10 cells [2], 9700 nM; in the series with AMO-1 cells (setting [5]), 10500 nM.
For `Cc1c2c(nn1C)C(CCN1CCOCC1)OCCCCn1c(C(=O)O)c(CCCOc3cccc4cc(F)ccc34)c3ccc(F)c-2c31` (single isomer, unassigned; enantiomer 2) [Example 21, 4-fluoro-7-{3-[(6-fluoronaphthalen-1-yl)oxy]propyl}-2,3-dimethyl-15-[2-(morpholin-4-yl)ethyl]-2,10,11,12,13,15-hexahydropyrazolo[4′,3′:9,10][1,6]oxazacycloundecino[8,7,6-hi]indole-8-carboxylic Acid (Enantiomer 2)], the EC50 with SUDHL10 cells [1] (Homo sapiens, SU-DHL10, 3 h, caspase-3/7 induction, 3 h; read-out: Caspase SUDHL10 EC50 (median)) came to 13000 nM. For the same compound, the concentration for half-maximal inhibition (IC50) in the series with SUDHL5 cells (setting [4]) is 3400 nM; in the series with SUDHL10 cells [2] (Homo sapiens, SU-DHL10, 5 h), 14000 nM; with AMO-1 cells (Homo sapiens, AMO1, 72 h, 72 h, CellTiter-Glo; read-out: Antiproli AMO-1 IC50 median) it was more than 33000 nM.
As to `Cc1c2c(nn1C)C(CCO)OCCCCn1c(C(=O)O)c(CCCOc3cccc4ccccc34)c3ccc(Cl)c-2c31` (single isomer, unassigned; enantiomer 2) [Example 32, (−)-4-chloro-15-(2-hydroxyethyl)-2,3-dimethyl-7-{3-[(naphthalen-1-yl)oxy]propyl}-2,10,11,12,13,15-hexahydropyrazolo[4′,3′:9,10][1,6]oxazacycloundecino[8,7,6-hi]indole-8-carboxylic Acid (Enantiomer 2)], the EC50 in the series on SUDHL10 cells [1] (setting [3]) was more than 33000 nM. In addition, the values for the IC50 in the series with SUDHL5 cells (setting [6]), in the series on SUDHL10 cells [2] and with AMO-1 cells (setting [5]) were 26000 nM, more than 33000 nM and 25600 nM, respectively.
`CCc1c2c(nn1C)C(CCN1CCOCC1)OCCCCn1c(C(=O)O)c(CCCOc3cccc4cc(F)ccc34)c3ccc(F)c-2c31` (single isomer, unassigned; enantiomer 2) [Example 51, (−)-3-ethyl-4-fluoro-7-{3-[(6-fluoronaphthalen-1-yl)oxy]propyl}-2-methyl-15-[2-(morpholin-4-yl)ethyl]-2,10,11,12,13,15-hexahydropyrazolo[4′,3′:9,10][1,6]oxazacycloundecino[8,7,6-hi]indole-8-carboxylic Acid (Enantiomer 2)]: the EC50 in the series with SUDHL10 cells [1] (setting [3]) worked out at 9800 nM. Besides, the 50% inhibitory concentration (IC50) in the series with SUDHL5 cells (setting [6]) was 2300 nM; in the series on SUDHL10 cells [2], 3700 nM; in the series on AMO-1 cells (setting [5]), 10800 nM.

Source of the values: patent US11440923B2, “Substituted macrocyclic indole derivatives” (Bayer Aktiengesellschaft, priority 2017, dated 2022).
